Measurements reported in ChEMBL document CHEMBL1201862, “PubChem BioAssay data set” (2004).
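Each compound was tested at five concentrations against cells in 96-well plates for 48 hours. GI50: concentration for 50% inhibition of growth.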 The source made the active and inactive calls. Cut-off read from the data, not from the text of the source: active = GI50 up to about 1.1 µM and inactive = higher.

Legend:
Assay in all cases: growth of human tumour cells (NCI), 48 h
UACC-257 = system: UACC-257
A498 = system: A498
SK-MEL-28 = system: SK-MEL-28
OVCAR-8 = system: OVCAR-8
UO-31 = system: UO-31
SK-MEL-5 = system: SK-MEL-5
786-0 = system: 786-0
SF-539 = system: SF-539
SNB-75 = system: SNB-75
HOP-92 = system: HOP-92
EKVX = system: EKVX
HOP-62 = system: HOP-62
NCI-H23 = system: NCI-H23
HT-29 = system: HT-29
SF-295 = system: SF-295
CCRF-CEM = system: CCRF-CEM
NCI-H522 = system: NCI-H522
Hs-578T = system: Hs-578T

Measured: GI50

COC(=O)C12CCC(CC1=O)C2(C)C (stereo unspecified)
inactive: UACC-257 > 100 µM | A498 > 100 µM | SK-MEL-28 > 100 µM | OVCAR-8 > 100 µM | UO-31 > 100 µM | SK-MEL-5 > 100 µM | 786-0 > 100 µM | SF-539 > 100 µM | SNB-75 40.2 µM | HOP-92 > 100 µM | EKVX > 100 µM | HOP-62 > 100 µM | NCI-H23 > 100 µM | HT-29 > 100 µM | SF-295 > 100 µM

N#Cc1c(O)c2ccccc2[nH]c1=O
inactive: UACC-257 > 100 µM | A498 > 100 µM | SK-MEL-28 > 100 µM | OVCAR-8 > 100 µM | UO-31 > 100 µM | SK-MEL-5 > 100 µM | 786-0 > 100 µM | SF-539 > 100 µM | SNB-75 > 100 µM | HOP-92 > 100 µM | CCRF-CEM > 100 µM | EKVX > 100 µM | HOP-62 > 100 µM | NCI-H522 > 100 µM | NCI-H23 > 100 µM | HT-29 > 100 µM | SF-295 > 100 µM

CCOC(=O)c1c(SC(=O)/C=C/c2ccccc2)n(-c2ccccc2)c(=S)n(-c2ccccc2)c1=O
inactive: UACC-257 > 100 µM | A498 > 100 µM | SK-MEL-28 > 100 µM | OVCAR-8 > 100 µM | Hs-578T > 100 µM | 786-0 > 100 µM | SF-539 > 100 µM | SNB-75 > 100 µM | HOP-92 > 100 µM | CCRF-CEM > 100 µM | EKVX > 100 µM | HOP-62 > 100 µM | NCI-H522 > 100 µM | NCI-H23 > 100 µM | HT-29 > 100 µM | SF-295 > 100 µM

O=[N+]([O-])c1cccc([N+](=O)[O-])c1Cl
inactive: UACC-257 11 µM | A498 21.8 µM | SK-MEL-28 21.1 µM | OVCAR-8 16.4 µM | Hs-578T 27 µM | UO-31 1.32 µM | SK-MEL-5 16.4 µM | 786-0 26.4 µM | SF-539 17.9 µM | SNB-75 30.3 µM | HOP-92 18.8 µM | EKVX 20.3 µM | HOP-62 23.5 µM | NCI-H522 12.6 µM | NCI-H23 16.6 µM | HT-29 19.9 µM | SF-295 16.1 µM

BrCCCCCOc1ccc(-c2c3ccccc3c(-c3ccc(OCCCCCBr)cc3)c3ccccc23)cc1
inactive: UACC-257 > 100 µM | SK-MEL-28 > 100 µM | OVCAR-8 > 100 µM | Hs-578T 35.7 µM | UO-31 > 100 µM | SK-MEL-5 > 100 µM | 786-0 > 100 µM | SF-539 > 100 µM | SNB-75 38.5 µM | CCRF-CEM > 100 µM | EKVX > 100 µM | HOP-62 > 100 µM | HT-29 > 100 µM | SF-295 > 100 µM

COc1cc2c(cc1OCCCOS(C)(=O)=O)N=C[C@@H]1CCCN1C2=O
inactive: UACC-257 > 100 µM | A498 > 100 µM | SK-MEL-28 > 100 µM | OVCAR-8 > 100 µM | Hs-578T > 100 µM | UO-31 > 100 µM | SK-MEL-5 > 100 µM | 786-0 > 100 µM | SF-539 > 100 µM | HOP-92 > 100 µM | EKVX > 100 µM | NCI-H522 > 100 µM | NCI-H23 > 100 µM | HT-29 > 100 µM | SF-295 > 100 µM

CCOC(=O)/C(C(=S)Nc1ccccc1)=C(/N)N1CCCC1
inactive: UACC-257 > 100 µM | A498 > 100 µM | SK-MEL-28 > 100 µM | OVCAR-8 > 100 µM | Hs-578T 77.4 µM | UO-31 > 100 µM | SK-MEL-5 > 100 µM | 786-0 > 100 µM | SF-539 > 100 µM | HOP-92 2.1 µM | CCRF-CEM 46.1 µM | EKVX > 100 µM | HOP-62 > 100 µM | NCI-H522 > 100 µM | NCI-H23 > 100 µM | HT-29 > 100 µM | SF-295 > 100 µM
